How the values were obtained:
[1] = test system: bone marrow-derived macrophages; test: Macrophage transwell migration; type: cell-based, mouse; conditions: TSP-1 1, 10 or 100 nM
Procedure: Assays were conducted using 6.5-mm-diameter culture plate inserts (Corning) with 5-μm and 3-μm pore sizes for macrophages and neutrophils, respectively. Macrophages (1 × 10^5) or neutrophils (3 × 10^5) in migration media (DMEM/F12 with 0.25% BSA) were added to the inserts. The lower chambers contained migration buffer alone or chemoattractant (mouse CCL2 10 ng ml^−1 for macrophages or mouse CXCL1/KC 150 ng ml^−1 for neutrophils, PeproTech) with or without CGRP. Cells were allowed to migrate through the insert membrane for 3-4 h at 37 °C with 5% CO2. For macrophages, the inserts were then fixed with 4% paraformaldehyde, and cells on the upper side were removed. DAPI (1 μg ml^−1) was used to stain cells on the bottom side, and they were counted using a fluorescent microscope. […] The data are presented as the fold change, calculated by dividing the number of cells that migrated in response to treatments by the number of cells that migrated spontaneously (migration media only).
After 24 h, cells were collected for the migration assay.

[2] = test system: bone marrow-derived neutrophils; test: Neutrophil transwell migration; type: cell-based, mouse; conditions: TSP-1 1, 10 or 100 nM
Procedure: Bone marrow cells were flushed from femora and tibiae of C57BL/6 J mice (8- to 12-week-old) with HBSS without Ca^2+ and Mg^2+ containing 2% FBS and 1 mM EDTA. Cell suspension was passed through a 70-μm strainer. Next, EasySep Mouse Neutrophil Enrichment Kit or EasySep Mouse Monocyte Isolation Kit ([sequence] Technologies) was used to isolate neutrophils or monocytes according to the manufacturer’s instructions. Neutrophils were resuspended in RPMI containing 100 units ml^−1 penicillin/streptomycin and 10% FBS for cell migration assay and cell death assay or 2% FBS for efferocytosis.
Assays were conducted using 6.5-mm-diameter culture plate inserts (Corning) with 5-μm and 3-μm pore sizes for macrophages and neutrophils, respectively. Macrophages (1 × 10^5) or neutrophils (3 × 10^5) in migration media (DMEM/F12 with 0.25% BSA) were added to the inserts. The lower chambers contained migration buffer alone or chemoattractant (mouse CCL2 10 ng ml^−1 for macrophages or mouse CXCL1/KC 150 ng ml^−1 for neutrophils, PeproTech) with or without CGRP. […] For neutrophils, cells that migrated into the lower chamber were collected and counted using a haemocytometer. The data are presented as the fold change, calculated by dividing the number of cells that migrated in response to treatments by the number of cells that migrated spontaneously (migration media only).

[3] = test system: bone marrow-derived macrophages; test: Macrophage cell death; type: cell-based, mouse; conditions: TSP-1 1, 10 or 100 nM, in the presence of inflammatory cytokines; dose-dependent
Procedure: Bone marrow cells from 8- to 12-week-old C57BL/6 J mice were flushed, filtered and cultured in conditioned medium (DMEM/F12 with 10% heat-inactivated FBS, 100 units ml^−1 penicillin/streptomycin, and 20% L929 fibroblasts-conditioned medium) at 37 °C with 5% CO2. After 7–9 days, differentiated macrophages were collected and seeded in 12-well or 6-well plates. The next day, cells were treated with CGRP (1 or 20 nM, Tocris Bioscience, 83651-90-5) for 20 min before exposure to mouse IL-1 (5 ng ml^−1) and TNF (50 ng ml^−1), IL-4 (2 ng ml^−1) and IL-13 (2 ng ml^−1), or IL-10 (2 ng ml^−1) (PeproTech Inc) for 24 or 72 h. Macrophages were detached with TrypLE (Gibco) containing 3 mM EDTA, stained with LIVE/DEAD Aqua dye for 20 min on ice, and incubated with blocking solution (10 μg ml^−1 TruStain FcX anti-CD16/32 (clone 93, BioLegend)) for 20 min before staining with antibodies for 30 min on ice. Antibodies from BioLegend included PE anti-CD11b (clone M1/70, 1 μg ml^−1), BV711 anti-F4/80 (clone BM8, 2 μg ml^−1), APC anti-CD80 (clone 16-10A1, 0.5 μg ml^−1) and PE-Cyanine7 anti-CD206 (clone C068C2, 1 μg ml^−1). […] After washing with Perm buffer and staining buffer, cells were analysed using BD LSR Fortessa X-20 and FlowJo software (BD Biosciences). […]

[4] = test system: bone marrow-derived macrophages; test: Macrophage efferocytosis of neutrophils; type: cell-based, mouse; conditions: macrophage treatment with TSP-1 1, 10 or 100 nM
Procedure: An efferocytosis assay kit (Cayman, 601770) was used following the manufacturer’s instructions. Neutrophils were labelled with CFSE and cultured in RPMI with 2% serum for 12 h to induce cell death. Bone marrow-derived macrophages cultured for 7 days were seeded at a density of 4 × 10^5 cells per well in a 6-well plate with DMEM/F12 containing 10% FBS and 100 units ml^−1 penicillin/streptomycin. Prior to the assay, macrophages were pre-treated with CGRP (1 or 20 nM) for 24 h. Macrophages were collected, labelled with CytoTell Blue, and then incubated with CFSE-labelled dead/dying neutrophils at different ratios (1:1, 1:2, and 1:4) at 37 °C for 15 min. The reaction was stopped by washing cells with ice-cold PBS containing 5% FBS and 1 mM EDTA. Cells were analysed with BD LSR Fortessa X-20 and FlowJo software (BD Biosciences). Macrophages were identified by CytoTell Blue-positive staining, and the efferocytosis index was calculated as the percentage of CFSE-positive cells in CytoTell Blue-labelled macrophages.
For the efferocytosis assay, cells were cultured with 1 nM CGRP immediately after transfection. After 24 h, cells were collected and co-cultured with dead or dying neutrophils.

[5] = test system: Nav1.8^cre/Rosa26^DTA mice; test: Flow cytometry of injured skin and muscle, nociceptor-ablated mice; type: in vivo, mouse; conditions: TSP-1 total 10 μg
Procedure: Skin wounds were collected using an 8-mm biopsy punch, and muscle defects were dissected to isolate the quadriceps. Samples were minced with scissors and subjected to two serial digestions with collagenase XI (1 mg ml^−1) at 37 °C (two times 20 min for skin, two times 15 min for muscle). After the first digestion, the supernatant was collected and mixed with neutralization buffer (DMEM/F12 with 10% FBS and 5 mM EDTA). The first collection was kept on ice and fresh collagenase XI was added to the undigested tissue for the second digestion. Digestion mixtures were passed through a 70-μm cell strainer and stained with LIVE/DEAD Fixable Aqua dye (Thermo Fisher Scientific, 1:400 dilution in PBS) for 20 min on ice. Cells were incubated with TruStain FcX anti-CD16/32 (10 μg ml^−1; clone 93, BioLegend) diluted in staining buffer (5% FBS and 2 mM EDTA in PBS) for 20 min and subsequently incubated with primary antibodies in staining buffer for a further 30 min on ice. The following anti-mouse antibodies from BioLegend were used: FITC anti-CD11b (clone M1/70, 6.6 μg ml^−1) or BV711 anti-CD11b (clone M1/70, 2 μg ml^−1); PE anti-F4/80 (clone BM8, 4 μg ml^−1); BV421 anti-Ly6G (clone 1A8, 2 μg ml^−1); BV711 anti-Ly6C (clone HK1.4, 1 μg ml^−1) or FITC anti-Ly6C (clone HK1.4, 5 μg ml^−1); PE-Cyanine7 anti-CD206 (clone C068C2, 2.6 μg ml^−1); APC anti-CD206 (clone C068C2, 2 μg ml^−^1); PE-Cyanine7 anti-CD3 (clone 17A2, 4 μg ml^−1); BV711 anti-CD3 (clone 17A2, 4 μg ml^−1);APC anti-CD4 (clone GK1.5, 2 μg ml^−1); BV421 anti-CD8 (clone 53-6.7, 2 μg ml^−1); PE anti-TCR β (clone H57-597, 2 μg ml^−1); APC/Fire 750 anti-TCR γ/δ (clone GL3, 2 μg ml^−1); PE-Cyanine anti-CD11c (clone N418, 2 μg ml^−1); APC/Fire 750 anti-MHC Class II (clone M5/114.15.2, 2 μg ml^−1). Cells were washed once with a large volume of staining buffer before analysis with BD LSR Fortessa X-20 and FlowJo software (BD Biosciences).

[6] = test system: bone marrow-isolated neutrophils; test: Neutrophil cell death; type: cell-based, mouse; conditions: TSP-1 1, 10 or 100 nM, in the presence of inflammatory cytokines; dose-dependent
[7] = skin wound borders D1 and D3 or muscle defect via fibrin hydrogel, day 3 post-injury

## thrombospondin-1 [TSP-1]
[1]
  macrophage migration towards CCL2: inhibition of migration
[2]
  neutrophil migration towards CXCL1: inhibition of migration
[3]
  macrophage death: accelerated death
[4]
  efferocytosis of neutrophils by macrophages: greatly enhanced
[5]; skin and muscle injuries, day 14 post-injury
  CD206 expression in injured tissue: increase
[5]; [7]
  number of inflammatory monocytes/macrophages (Ly6C^hi) in injured tissue: reduced numbers
  number of monocytes/macrophages in injured tissue: reduced numbers
  number of neutrophils in injured tissue: reduced numbers
[6]
  neutrophil death: accelerated death
